Laboratory results published in ChEMBL document CHEMBL3351378, “Phenyl acetate derivatives, fluorine-substituted on the phenyl group, as rapid recovery hypnotic agents with reflex depression” (Eur J Med Chem, 2015).
Activity calls are given as the source filed them. The calls are words filed in the database; no cut-off is given here.

Key:
[1] = system: Rattus norvegicus; experiment: Induction of hypnotic activity in iv dosed Sprague-Dawley rat assessed as time duration of loss of righting reflex; type: functional
[2] = Therapeutic index, ratio of […] for Sprague-Dawley rat by rotarod test to HD50 for hypnotic activity in iv dosed Sprague-Dawley rat; type: organism-based; details: in vivo, read-out: TI
[3] = target: Glutamate NMDA receptor (Rattus norvegicus) (UniProt P35439+Q00959+Q00960+Q00961+Q62645+Q8VHN2+Q9R1M7); experiment: Displacement of [3H]MK801 from NMDA receptor in Sprague-Dawley rat cerebral cortex membrane at 50 umol by liquid scintillation counting; type: tissue-based
[4] = system: Rattus norvegicus; experiment: Induction of hypnotic activity in iv dosed Sprague-Dawley rat assessed as loss of righting reflex; type: functional
[5] = Toxicity in Sprague-Dawley rat assessed as motor coordination by rotarod test; type: organism-based; details: in vivo
[6] = system: Rattus norvegicus; experiment: Induction of hypnotic activity in iv dosed Sprague-Dawley rat assessed as reflex depression 20 secs following injection; type: functional, organism-based
[7] = system: Rattus norvegicus; experiment: Induction of hypnotic activity in iv dosed Sprague-Dawley rat assessed as reflex depression 10 secs following injection; type: functional, organism-based
[8] = system: Rattus norvegicus; experiment: Induction of hypnotic activity in iv dosed Sprague-Dawley rat assessed as reflex depression 120 secs following injection; type: functional, organism-based
[9] = system: Rattus norvegicus; experiment: Induction of hypnotic activity in Sprague-Dawley rat assessed as recovery time to walking at 5.6 mg/kg/min after 20 mins to 3 hrs; type: functional, organism-based
[10] = system: Rattus norvegicus; experiment: Induction of hypnotic activity in iv dosed Sprague-Dawley rat assessed as reflex depression 30 secs following injection; type: functional, organism-based
[11] = system: Rattus norvegicus; experiment: Induction of hypnotic activity in iv dosed Sprague-Dawley rat assessed as reflex depression 180 secs following injection; type: functional, organism-based
[12] = system: Rattus norvegicus; experiment: Induction of hypnotic activity in iv dosed Sprague-Dawley rat assessed as reflex depression 60 secs following injection; type: functional, organism-based

Row | SMILES | Time [1] [s] | selectivity ratio [2] | Activity [3] | HD50 [4] [mg/kg] | TD50 [5] [mg/kg] | Activity [6] | Activity [7] | Activity [8] | Activity [9] | Activity [10] | Activity [11] | Activity [12]
1 | CCOC(=O)Cc1cc(F)c(OCC(=O)N(CC)CC)c(OCC)c1 | 66.5 | 12.1 | inactive | 18.5 | 224 | – | – | – | – | – | – | –
2 | CCCOC(=O)Cc1ccc(OCC(=O)N(CC)CC)c(OCC)c1F | 81.4 | 10.4 | inactive | 16.6 | 173 | – | – | – | – | – | – | –
3 | CCN(CC)C(=O)COc1cc(F)c(CC(=O)OCC(F)(F)F)cc1OC | 75.4 | 9.3 | inactive | 18.4 | 171 | – | – | – | – | – | – | –
4 | CCOC(=O)Cc1cc(OC)c(OCC(=O)N(CC)CC)cc1F | 82.2 | 11.3 | inactive | 10 | 113 | – | – | – | – | – | – | –
5 | CCN(CC)C(=O)COc1c(F)cc(CC(=O)OC(C)C)cc1OC | 79.5 | 12.4 | inactive | 14.2 | 176 | – | – | – | – | – | – | –
6 | CCOc1cc(CC(=O)OC(C)C(F)(F)F)cc(F)c1OCC(=O)N(CC)CC (stereo not given) | 88.8 | 9.9 | inactive | 18.3 | 181 | – | – | – | – | – | – | –
7 | CCOc1c(OCC(=O)N(CC)CC)ccc(CC(=O)OCC(F)(F)F)c1F | 83.3 | 7.7 | inactive | 21.1 | 162 | – | – | – | – | – | – | –
8 | CCCOC(=O)Cc1ccc(OCC(=O)N(CC)CC)c(OC)c1 [PROPANIDID] | 93.3 | 9.6 | inactive | 8.5 | 80.6 | Active | Active | – | – | – | – | –
9 | CCCOC(=O)Cc1cc(OC)c(OCC(=O)N(CC)CC)cc1F | 79.3 | 12.6 | inactive | 15.8 | 199 | – | – | – | – | – | – | –
10 | CCOc1cc(CC(=O)OCC(F)(F)F)cc(F)c1OCC(=O)N(CC)CC | 76.6 | 8.7 | inactive | 14.6 | 127 | – | – | – | – | – | – | –
11 | CC(C)c1cccc(C(C)C)c1O [PROPOFOL] | 349.3 | 5.9 | – | 5.3 | 30.7 | – | – | – | – | – | – | –
12 | CCOC(=O)Cc1ccc(OCC(=O)N(CC)CC)c(OC)c1F | 89.8 | 9.3 | inactive | 21.6 | 201 | – | – | – | – | – | – | –
13 | CCCOC(=O)Cc1ccc(OCC(=O)N(CC)CC)c(OCC)c1 [AZD-3043] | 74.2 | 10.1 | inactive | 7.9 | 82.8 | Active | Active | – | – | – | – | –
14 | CCOc1c(OCC(=O)N(CC)CC)ccc(CC(=O)OC(C)C(F)(F)F)c1F (stereo not given) | 89.8 | 7.4 | inactive | 24.6 | 182 | – | – | – | – | – | – | –
15 | CCN(CC)C(=O)COc1ccc(CC(=O)OC(C)C)c(F)c1OC | 91.4 | 7.9 | inactive | 17.9 | 141 | – | – | – | – | – | – | –
16 | CCOC(=O)Cc1cc(OCC)c(OCC(=O)N(CC)CC)cc1F | 209.6 | 14.4 | 56.6% | 5.6 | 74.5 | Active | inactive | Active | inactive | Active | Active | Active
17 | CCOc1cc(CC(=O)OC(C)C)cc(F)c1OCC(=O)N(CC)CC | 92.7 | 13.1 | inactive | 19.5 | 256 | – | – | – | – | – | – | –
18 | CCOC(=O)Cc1cc(F)c(OCC(=O)N(CC)CC)c(OC)c1 | 72 | 13.9 | inactive | 17.2 | 239 | – | – | – | – | – | – | –

Row | SMILES | Time [1] [s] | selectivity ratio [2] | Activity [3] | HD50 [4] [mg/kg] | TD50 [5] [mg/kg] | Activity [6] | Activity [7] | Activity [8] | Activity [9] | Activity [10] | Activity [11] | Activity [12]
19 | CCOC(=O)Cc1ccc(OCC(=O)N(CC)CC)c(OCC)c1F | 77.7 | 10.1 | inactive | 19.8 | 200 | – | – | – | – | – | – | –
20 | CCN(CC)C(=O)COc1cc(F)c(CC(=O)OC(C)C(F)(F)F)cc1OC (stereo not given) | 88.9 | 9.7 | inactive | 15.6 | 151 | – | – | – | – | – | – | –
21 | CCN(CC)C(=O)COc1ccc(CC(=O)OCC(F)(F)F)c(F)c1OC | 88.7 | 8.1 | inactive | 22.8 | 185 | – | – | – | – | – | – | –
22 | CCN(CC)C(=O)COc1ccc(CC(=O)OC(C)C(F)(F)F)c(F)c1OC (stereo not given) | 92.6 | 7.4 | inactive | 21.4 | 158 | – | – | – | – | – | – | –
23 | CCCOC(=O)Cc1cc(F)c(OCC(=O)N(CC)CC)c(OCC)c1 | 76.6 | 11.8 | inactive | 14.8 | 175 | – | – | – | – | – | – | –
24 | CCCOC(=O)Cc1ccc(OCC(=O)N(CC)CC)c(OC)c1F | 76.6 | 8.7 | inactive | 19.4 | 169 | – | – | – | – | – | – | –
25 | CCOc1cc(CC(=O)OCC(F)(F)F)c(F)cc1OCC(=O)N(CC)CC | 186.1 | 11.5 | inactive | 9.8 | 113 | – | – | – | – | – | – | –
26 | CCN(CC)C(=O)COc1c(F)cc(CC(=O)OCC(F)(F)F)cc1OC | 71.1 | 9.8 | inactive | 16.9 | 165 | – | – | – | – | – | – | –
27 | CCN(CC)C(=O)COc1cc(F)c(CC(=O)OC(C)C)cc1OC | 86.6 | 13.5 | inactive | 11.5 | 155 | – | – | – | – | – | – | –
28 | CCCOC(=O)Cc1cc(F)c(OCC(=O)N(CC)CC)c(OC)c1 | 68.9 | 11.2 | inactive | 16.8 | 188 | – | – | – | – | – | – | –
29 | CCOc1c(OCC(=O)N(CC)CC)ccc(CC(=O)OC(C)C)c1F | 102.9 | 9.2 | inactive | 17.9 | 165 | – | – | – | – | – | – | –
30 | CCN(CC)C(=O)COc1c(F)cc(CC(=O)OC(C)C(F)(F)F)cc1OC (stereo not given) | 84.2 | 9.6 | inactive | 15.4 | 148 | – | – | – | – | – | – | –
31 | CCCOC(=O)Cc1cc(OCC)c(OCC(=O)N(CC)CC)cc1F | 215.3 | 13.3 | inactive | 5.3 | 70.5 | – | – | – | – | – | – | –
32 | CCCCOC(=O)Cc1cc(OCC)c(OCC(=O)N(CC)CC)cc1F | 158.3 | 11.2 | inactive | 9.7 | 109 | – | – | – | – | – | – | –
33 | CCOc1cc(CC(=O)OC(C)C)c(F)cc1OCC(=O)N(CC)CC | 226.2 | 12.7 | inactive | 4.8 | 60.9 | – | – | – | – | – | – | –
34 | CCOc1cc(CC(=O)OC(C)CC)c(F)cc1OCC(=O)N(CC)CC (stereo not given) | 145.3 | 10.8 | inactive | 8.4 | 90.7 | – | – | – | – | – | – | –
35 | CCOc1cc(CC(=O)OC(C)C(F)(F)F)c(F)cc1OCC(=O)N(CC)CC (stereo not given) | 238.3 | 10.7 | inactive | 11.6 | 124 | – | – | – | – | – | – | –
36 | CCCOc1cc(CC(=O)OC(C)C)c(F)cc1OCC(=O)N(CC)CC | 133.9 | 9.6 | inactive | 10.6 | 102 | – | – | – | – | – | – | –
